# Results published in patent US20230085307A1, “PYRIDAZINONE COMPOUND AND HERBICIDE” (NISSAN CHEMICAL CORPORATION, priority 2019, published 2023).
# What was measured:
# barnyard grass [1] = experiment: Test Example 5: herbicidal effect by foliage application, plastic box (Table 20, symbol H); format: in vivo, barnyard grass (Echinochloa crus-galli); conditions: 320 g/ha, evaluated three weeks after application
# Summary of the method: (§1)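 Plants were sown into sterilized diluvial soil under about 1.5 cm cover and kept in a greenhouse at 25° C. to 30° C. Fourteen days on, foliage received an even spray of the diluted emulsion. Herbicidal or crop effect was judged three weeks afterwards.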
# green foxtail [2] = experiment: Test Example 5: herbicidal effect by foliage application, plastic box (Table 20, symbol G); format: in vivo, green foxtail (Setaria viridis); conditions: 320 g/ha, evaluated three weeks after application
# Summary of the method: as §1
# windgrass [3] = experiment: Test Example 4: herbicidal effect by soil treatment (Table 19, symbol L); format: in vivo, windgrass (Apera spica-venti); conditions: amount of applied herbicide 320 g/ha
# Summary of the method: (§2)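 In this soil treatment, the formulated compound reached the seeds only through the soil: seeds were buried about 1.5 cm deep in sterilized diluvial soil, then the diluted emulsion was sprayed over the surface. After three weeks at 25° C. to 30° C. in a greenhouse, effects were graded on criteria from an earlier test.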
# windgrass [4] = experiment: Test Example 5: herbicidal effect by foliage application, plastic box (Table 20, symbol L); format: in vivo, windgrass (Apera spica-venti); conditions: 320 g/ha, evaluated three weeks after application
# Summary of the method: as §1
# blackgrass [5] = experiment: Test Example 4: herbicidal effect by soil treatment (Table 19, symbol J); format: in vivo, blackgrass (Alopecurus myosuroides); conditions: amount of applied herbicide 320 g/ha
# Summary of the method: as §2
# redroot pigweed [6] = experiment: Test Example 4: herbicidal effect by soil treatment (Table 19, symbol N); format: in vivo, redroot pigweed (Amaranthus retroflexus); conditions: amount of applied herbicide 320 g/ha
# Summary of the method: as §2
# southern crabgrass [7] = experiment: Test Example 5: herbicidal effect by foliage application, plastic box (Table 20, symbol F); format: in vivo, southern crabgrass (Digitaria ciliaris); conditions: 320 g/ha, evaluated three weeks after application
# Summary of the method: as §1
# late watergrass = experiment: Test Example 2: herbicidal activity, application during weed generation under submerged conditions (Table 17, symbol A); format: in vivo, late watergrass (Echinochloa oryzicola); conditions: AAH 320 g/ha; application during weed generation, submerged conditions
# Summary of the method: (§3)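 3-wk visual-criteria score after one water-surface dose. Emulsion formulation, water-diluted to set rate; applied at 1–2 leaf stage; alluvial soil, 4 cm standing water; seeds co-sown; greenhouse 25–30° C.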
# velvetleaf [8] = experiment: Test Example 4: herbicidal effect by soil treatment (Table 19, symbol M); format: in vivo, velvetleaf (Abutilon theophrasti); conditions: amount of applied herbicide 320 g/ha
# Summary of the method: as §2
# velvetleaf [9] = experiment: Test Example 5: herbicidal effect by foliage application, plastic box (Table 20, symbol M); format: in vivo, velvetleaf (Abutilon theophrasti); conditions: 320 g/ha, evaluated three weeks after application
# Summary of the method: as §1
# oval-leafed pondweed = experiment: Test Example 2: herbicidal activity, application during weed generation under submerged conditions (Table 17, symbol C); format: in vivo, oval-leafed pondweed (Monochoria vaginalis); conditions: AAH 320 g/ha; application during weed generation, submerged conditions
# Summary of the method: as §3
# persian speedwell [10] = experiment: Test Example 4: herbicidal effect by soil treatment (Table 19, symbol R); format: in vivo, Persian speedwell (Veronica persica); conditions: amount of applied herbicide 320 g/ha
# Summary of the method: as §2
# redroot pigweed [11] = experiment: Test Example 5: herbicidal effect by foliage application, plastic box (Table 20, symbol N); format: in vivo, redroot pigweed (Amaranthus retroflexus); conditions: 320 g/ha, evaluated three weeks after application
# Summary of the method: as §1
# Chinese sprangletop = experiment: Test Example 3: herbicidal effect by foliage application, Wagner pot (Table 18, symbol D); format: in vivo, chinese sprangletop (Leptochloa chinensis)
# Summary of the method: (§4)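 Plants were sown in alluvial soil held under 0.1–0.5 cm standing water and grown 14 days in a greenhouse at 25–30 °C. An emulsifiable formulation, water-diluted to the set dose, was then sprayed onto the foliage, and effects were scored three weeks later using previously defined criteria.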
# wild oat [12] = experiment: Test Example 4: herbicidal effect by soil treatment (Table 19, symbol I); format: in vivo, wild oat (Avena fatua); conditions: amount of applied herbicide 320 g/ha
# Summary of the method: as §2
# green foxtail [13] = experiment: Test Example 4: herbicidal effect by soil treatment (Table 19, symbol G); format: in vivo, green foxtail (Setaria viridis); conditions: amount of applied herbicide 320 g/ha
# Summary of the method: as §2
# southern crabgrass [14] = experiment: Test Example 4: herbicidal effect by soil treatment (Table 19, symbol F); format: in vivo, southern crabgrass (Digitaria ciliaris); conditions: amount of applied herbicide 320 g/ha
# Summary of the method: as §2
# blackgrass [15] = experiment: Test Example 5: herbicidal effect by foliage application, plastic box (Table 20, symbol J); format: in vivo, blackgrass (Alopecurus myosuroides); conditions: 320 g/ha, evaluated three weeks after application
# Summary of the method: as §1
# barnyard grass [16] = experiment: Test Example 4: herbicidal effect by soil treatment (Table 19, symbol H); format: in vivo, barnyard grass (Echinochloa crus-galli); conditions: amount of applied herbicide 320 g/ha
# Summary of the method: as §2
# wild oat [17] = experiment: Test Example 5: herbicidal effect by foliage application, plastic box (Table 20, symbol I); format: in vivo, wild oat (Avena fatua); conditions: 320 g/ha, evaluated three weeks after application
# Summary of the method: as §1
# lambsquarters [18] = experiment: Test Example 4: herbicidal effect by soil treatment (Table 19, symbol O); format: in vivo, lambsquarters (Chenopodium album); conditions: amount of applied herbicide 320 g/ha
# Summary of the method: as §2
# chickweed = experiment: Test Example 5: herbicidal effect by foliage application, plastic box (Table 20, symbol P); format: in vivo, common chickweed (Stellaria media); conditions: 320 g/ha, evaluated three weeks after application
# Summary of the method: as §1
# barnyard grass [19] = experiment: Test Example 3: herbicidal effect by foliage application, Wagner pot (Table 18, symbol H); format: in vivo, barnyard grass (Echinochloa crus-galli)
# Summary of the method: as §4
# lambsquarters [20] = experiment: Test Example 5: herbicidal effect by foliage application, plastic box (Table 20, symbol O); format: in vivo, lambsquarters (Chenopodium album); conditions: 320 g/ha, evaluated three weeks after application
# Summary of the method: as §1
# rice flat sedge = experiment: Test Example 3: herbicidal effect by foliage application, Wagner pot (Table 18, symbol E); format: in vivo, rice flat sedge (Cyperus iria)
# Summary of the method: as §4
# Japanese bulrush = experiment: Test Example 2: herbicidal activity, application during weed generation under submerged conditions (Table 17, symbol B); format: in vivo, Japanese bulrush (Schoenoplectus juncoides); conditions: AAH 320 g/ha; application during weed generation, submerged conditions
# Summary of the method: as §3
# persian speedwell [21] = experiment: Test Example 5: herbicidal effect by foliage application, plastic box (Table 20, symbol R); format: in vivo, Persian speedwell (Veronica persica); conditions: 320 g/ha, evaluated three weeks after application
# Summary of the method: as §1
# Italian ryegrass [22] = experiment: Test Example 5: herbicidal effect by foliage application, plastic box (Table 20, symbol K); format: in vivo, Italian ryegrass (Lolium multiflorum); conditions: 320 g/ha, evaluated three weeks after application
# Summary of the method: as §1
# Italian ryegrass [23] = experiment: Test Example 4: herbicidal effect by soil treatment (Table 19, symbol K); format: in vivo, Italian ryegrass (Lolium multiflorum); conditions: amount of applied herbicide 320 g/ha
# Summary of the method: as §2
# [24] = amount of applied herbicide 320 g/ha
# [25] = foliage application after 14-day growth
smiles,measurement,setting,value
CCCSc1ccc(-c2sc3ccc(F)cc3c2-c2c(O)c(C)nn(C)c2=O)cc1 [2-248],herbicidal effect on H: barnyard grass (criteria 0-5),barnyard grass [1]; foliage application,5 (Herbicidal rate of 90% or more (almost completely withered))
same,herbicidal effect on G: green foxtail (criteria 0-5),green foxtail [2]; foliage application,5 (Herbicidal rate of 90% or more (almost completely withered))
same,herbicidal effect on L: windgrass,windgrass [3],0 (Herbicidal rate of 5% or less (almost no effect))
same,herbicidal effect on L: windgrass (criteria 0-5),windgrass [4]; foliage application,5 (Herbicidal rate of 90% or more (almost completely withered))
same,herbicidal effect on J: blackgrass,blackgrass [5],0 (Herbicidal rate of 5% or less (almost no effect))
same,herbicidal effect on N: redroot pigweed,redroot pigweed [6],5 (Herbicidal rate of 90% or more (almost completely withered))
same,herbicidal effect on F: southern crabgrass (criteria 0-5),southern crabgrass [7]; foliage application,5 (Herbicidal rate of 90% or more (almost completely withered))
same,"herbicidal effect rating, A: late watergrass",late watergrass,4 (Herbicidal rate of 70% or more and less than 90%)
same,herbicidal effect on M: velvetleaf,velvetleaf [8],3 (Herbicidal rate of 40% or more and less than 70%)
same,herbicidal effect on M: velvetleaf (criteria 0-5),velvetleaf [9]; foliage application,5 (Herbicidal rate of 90% or more (almost completely withered))
same,"herbicidal effect rating, C: oval-leafed pondweed",oval-leafed pondweed,0 (Herbicidal rate of 5% or less (almost no effect))
same,herbicidal effect on R: persian speedwell,persian speedwell [10],4 (Herbicidal rate of 70% or more and less than 90%)
same,herbicidal effect on N: redroot pigweed (criteria 0-5),redroot pigweed [11]; foliage application,5 (Herbicidal rate of 90% or more (almost completely withered))
same,herbicidal effect on D: Chinese sprangletop,Chinese sprangletop; [24],5 (Herbicidal rate of 90% or more (almost completely withered))
same,herbicidal effect on I: wild oat,wild oat [12],0 (Herbicidal rate of 5% or less (almost no effect))
same,herbicidal effect on G: green foxtail,green foxtail [13],4 (Herbicidal rate of 70% or more and less than 90%)
same,herbicidal effect on F: southern crabgrass,southern crabgrass [14],1 (Herbicidal rate of 5% or more and less than 20%)
same,herbicidal effect on J: blackgrass (criteria 0-5),blackgrass [15]; foliage application,4 (Herbicidal rate of 70% or more and less than 90%)
same,herbicidal effect on H: barnyard grass,barnyard grass [16],2 (Herbicidal rate of 20% or more and less than 40%)
same,herbicidal effect on I: wild oat (criteria 0-5),wild oat [17]; foliage application,5 (Herbicidal rate of 90% or more (almost completely withered))
same,herbicidal effect on O: lambsquarters,lambsquarters [18],4 (Herbicidal rate of 70% or more and less than 90%)
same,herbicidal effect on P: chickweed (criteria 0-5),chickweed; foliage application,5 (Herbicidal rate of 90% or more (almost completely withered))
same,herbicidal effect on H: barnyard grass,barnyard grass [19]; [24],5 (Herbicidal rate of 90% or more (almost completely withered))
same,herbicidal effect on O: lambsquarters (criteria 0-5),lambsquarters [20]; foliage application,5 (Herbicidal rate of 90% or more (almost completely withered))
same,herbicidal effect on E: rice flat sedge,rice flat sedge; [24],4 (Herbicidal rate of 70% or more and less than 90%)
same,"herbicidal effect rating, B: Japanese bulrush",Japanese bulrush,0 (Herbicidal rate of 5% or less (almost no effect))
same,herbicidal effect on R: persian speedwell (criteria 0-5),persian speedwell [21]; foliage application,5 (Herbicidal rate of 90% or more (almost completely withered))
same,herbicidal effect on K: Italian ryegrass (criteria 0-5),Italian ryegrass [22]; foliage application,4 (Herbicidal rate of 70% or more and less than 90%)
same,herbicidal effect on K: Italian ryegrass,Italian ryegrass [23],0 (Herbicidal rate of 5% or less (almost no effect))
Cc1ccc(-c2sc3c(Cl)cccc3c2-c2c(O)c(C)nn(C)c2=O)cc1 [4-019],herbicidal effect on H: barnyard grass (evaluation grade 0-5),barnyard grass [1]; [25],0 (Herbicidal rate of 5% or less (almost no effect))
same,herbicidal effect on G: green foxtail (evaluation grade 0-5),green foxtail [2]; [25],1 (Herbicidal rate of 5% or more and less than 20%)
same,herbicidal effect on L: windgrass (evaluation grade 0-5),windgrass [4]; [25],1 (Herbicidal rate of 5% or more and less than 20%)
same,herbicidal effect on F: southern crabgrass (evaluation grade 0-5),southern crabgrass [7]; [25],0 (Herbicidal rate of 5% or less (almost no effect))
same,"herbicidal effect rating, A: late watergrass",late watergrass,4 (Herbicidal rate of 70% or more and less than 90%)
same,herbicidal effect on M: velvetleaf (evaluation grade 0-5),velvetleaf [9]; [25],5 (Herbicidal rate of 90% or more (almost completely withered))
same,"herbicidal effect rating, C: oval-leafed pondweed",oval-leafed pondweed,0 (Herbicidal rate of 5% or less (almost no effect))
same,herbicidal effect on N: redroot pigweed (evaluation grade 0-5),redroot pigweed [11]; [25],5 (Herbicidal rate of 90% or more (almost completely withered))
same,herbicidal effect on Chinese sprangletop (D),Chinese sprangletop; 320 g/ha,4 (Herbicidal rate of 70% or more and less than 90%)
same,herbicidal effect on J: blackgrass (evaluation grade 0-5),blackgrass [15]; [25],0 (Herbicidal rate of 5% or less (almost no effect))
same,herbicidal effect on I: wild oat (evaluation grade 0-5),wild oat [17]; [25],3 (Herbicidal rate of 40% or more and less than 70%)
same,herbicidal effect on P: chickweed (evaluation grade 0-5),chickweed; [25],5 (Herbicidal rate of 90% or more (almost completely withered))
same,herbicidal effect on barnyard grass (H),barnyard grass [19]; 320 g/ha,3 (Herbicidal rate of 40% or more and less than 70%)
same,herbicidal effect on O: lambsquarters (evaluation grade 0-5),lambsquarters [20]; [25],1 (Herbicidal rate of 5% or more and less than 20%)
same,herbicidal effect on rice flat sedge (E),rice flat sedge; 320 g/ha,5 (Herbicidal rate of 90% or more (almost completely withered))
same,"herbicidal effect rating, B: Japanese bulrush",Japanese bulrush,0 (Herbicidal rate of 5% or less (almost no effect))
same,herbicidal effect on R: persian speedwell (evaluation grade 0-5),persian speedwell [21]; [25],4 (Herbicidal rate of 70% or more and less than 90%)
same,herbicidal effect on K: Italian ryegrass (evaluation grade 0-5),Italian ryegrass [22]; [25],3 (Herbicidal rate of 40% or more and less than 70%)
